pEC50, pIC50: −log10 of the molar value. Values after ≈ are worked out from the molar mass of the structure shown.
Experiments:
[1] = biological target: BRD4 BD2 (Homo sapiens (Human), UniProt O60885); assay: NanoBRET bromodomain assay, NanoLuc-BRD4-BD2 fusion in HEK293 cells;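 note: tracer displacement BRET read in transfected cells after 2 h compound exposure at 37 °C, signal in milliBRET units corrected against no-tracer background wells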
[2] = biological target: BRD4 BD1 (Homo sapiens (Human), UniProt O60885); assay: NanoBRET bromodomain assay, NanoLuc-BRD4-BD1 fusion in HEK293 cells; assay type: cell-based; conditions: top concentration 10 μM
Experimental: HEK293 cells were transfected using NanoLuc-BRD4-BD1 or NanoLuc-BRD4-BD2 fusion vectors and incubated at 37° C. in an atmosphere of 5% CO2 for 20-24 hours. The transfected cells were then dispensed into 96-well plates using 90 μl cell suspension per well containing 2×10^5 cells/mL in Opti-MEM and 1× final concentration of tracer. 90 μL per well of cell suspension without tracer was also dispensed into at least 3 wells as “No tracer control samples” for background correction. Serially diluted test compounds were prepared at 1000× concentration in DMSO and further diluted to 10× concentration in Opti-MEM. […] Plates were then incubated at 37° C. +5% 002 incubator for 2 hours. […] Donor emission (450 nm) and acceptor emission (610 nm) were measured using PHERAstar (BMG LabTech). For data analysis, the raw BRET ratio was generated and converted to milliBRET units with background correction using the formula: [(Acceptorsample/Donorsample−(Acceptorno tracer control/Donorno tracer control)]×1000. The mBU data was plotted as a function of compound concentration and IC50s for BRET assay were determined by nonlinear regression analysis of concentration response curves using the Collaborative Drug Discovery Vault software. The fold-selectivity was calculated by dividing the IC50 for BRD4 BD1 by the IC50 for BRD4 BD2.

[3] = Intrinsic clearance in liver microsomes, mouse; assay type: in vitro ADME; conditions: pH 7.4, Method 1, read-out: Half-Life (T1/2) (min), Mouse
In short: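 Compound at 1 μM (0.1–1% DMSO) incubated at 37 °C with mouse or rat liver microsomes (0.5 mg/mL protein) and 1 mM NADPH in PBS pH 7.4; samples taken up to 60 min and quenched in cold acetonitrile. LC-MS/MS of percent remaining gave half-life and CLint; no-NADPH controls run.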

[4] = Plasma stability assay, mouse plasma; assay type: in vitro ADME; conditions: Method 1 (5 μM)
Experimental: (§1) From stock solution of compound in 10 mM DMSO, a working solution of 1 mM is prepared by diluting the compound in DMSO. To 398 μL of plasma pre-warmed at 37° C. for 15 minutes), 2 μL of working solution of compound is added, resulting in a final concentration of 5 μM (0.5% DMSO) for the compound. The sample is then incubated at 37° C. Aliquot is withdrawn at specified time-points (0, 15, 30, 60 and 120 mins). The reaction is stopped by addition of 450 μL cold acetonitrile containing internal standard (IS). […] Aliquots of the supernatant is analysed using LC-MS/MS. The percent remaining of the compound at each time point is calculated with respect to the control sample (0 min time-point).
(§2) A working solution of compound (500 μM) is prepared in DMSO (100%). To 735 μL of plasma, 15 μL of working solution of compound is added—resulting in a final concentration of 10 μM (2% DMSO) for the compound. The sample is then incubated at 37° C. Aliquot is withdrawn at time-points—0, 15, 30, 60, 90 and 120 mins. The reaction is stopped by using chilled acetonitrile containing internal standard (IS). The samples are centrifuged and the supernatants analyzed using LC-MS/MS. The percent remaining of the compound at each time point is calculated with respect to the control sample (0 min time-point).

[5] = Thermodynamic solubility in FaSSIF pH 6.5 buffer; assay type: physicochemical; conditions: FaSSIF buffer, 25 °C, pH 6.5, fassif, thermodynamic from solid, Method 1 (UV-vis, 25° C., 24 hrs)
Experimental: FaSSIF v2 buffer is freshly prepared prior to use according to the suppliers' instructions and the pH adjusted to 6.5 using 1 M NaOH or 1 M HCl as required. From 1 mM working solution of test compound in DMSO, the λmax of the test compound is determined by scanning from 200 nm to 700 nm, in 1 nm steps with an EPOCH UV/Visible spectrophotometer (Biotek Instruments Inc.). A 12-point standard curve of compound concentration versus absorption at λmax is generated via two-fold serial dilutions of the 1 mM working solution with DMSO. Approximately 1 mg of test compound is accurately weighed into an Eppendorf tube and the appropriate volume of FaSSIF buffer is added to make a nominal concentration of 1 mg/mL. The tube is incubated on a rotator at 20 rpm, 25° C. for 24 hrs. Samples are then filtered using 0.45 μm filters (Sartorious, CAT #1776C) and the filtrate subjected to UV-vis spectroscopy analysis. The absorption at λmax is compared to the standard curve to determine the concentration of compound in solution after 24 hours.
FaSSIF buffer was prepared according to the suppliers' instructions and the pH adjusted to 6.5 using 1 M NaOH or 1 M HCl as required. […] A stir stick was added to each vial and vials sealed with a moulded PTDE/SIL 96-well plate cover. The plate was shaken at 25° C. at 1,100 rpm using an Eppendorf Thermomixer Comfort plate shaker. The plates were filtered using a vacuum manifold and diluted with a mixture of H2O and acetonitrile containing internal standard. The concentration of the test compound in the filtrate was determined by LCMS analysis with reference to the internal standards to determine the solubility in the buffer.

[6] = Plasma stability assay, human plasma; assay type: in vitro ADME; conditions: Method 1 (5 μM)
Experimental: as §1, §2

[7] = Plasma stability assay, rat plasma; assay type: in vitro ADME; conditions: Method 1 (5 μM)
In short: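 Compound at 5 μM final (0.5% DMSO) in one protocol or 10 μM (2% DMSO) in the other, incubated in plasma at 37° C.; samples taken 0–120 min and quenched with cold acetonitrile plus internal standard. LC-MS/MS gives percent remaining relative to the 0-min sample.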

[8] = biological target: BD 2 (Homo sapiens, UniProt O60885); assay: Free EC50 for BD 2, compared with plasma concentration

Question: For `CNC(=O)c1[nH]c(C(=O)NC2CCC2)cc1O[C@@H](C)c1ccccc1` (stereo in doubt) [Example 101, N^5-cyclobutyl-N^2-methyl-3-(1-phenylethoxy)-1H-pyrrole-2,5-dicarboxamide], which “selectivity for BDII relative to GSK620” value [1] is on record?
Answer: Its value is “more selective than GSK620 for BDII by greater than about two orders of magnitude”.

Question: And the pIC50 ([1]; BRD4 BD2 (IC50), NanoBRET, HEK293 cells, top concentration 10 μM)?
Answer: The pIC50 was greater than 7.30.

Question: And the Fold selectivity ([1]; IC50 for BRD4 BD1 divided by IC50 for BRD4 BD2, qualitative if an IC50 is at the upper limit)?
Answer: Its Fold selectivity is “XXX (Fold >200)”.

Question: And the pIC50 [2]?
Answer: Its pIC50 is no more than 5.00.

Question: And the half-life at 1 μM [3]?
Answer: The half-life at 1 μM was 27 min.

Question: And the “Plasma Stability (% remaining at 120 minutes), Mouse” value [4]?
Answer: Its value is greater than 99%.

Question: What about the solubility thermodynamic at 24 h [5] of the same compound?
Answer: The solubility thermodynamic at 24 h was 193 µM (≈ 65.9 µg/mL).

Question: And the “Plasma Stability (% remaining at 120 minutes), Human” value [6]?
Answer: Its value is 93%.

Question: What about the “Plasma Stability (% remaining at 120 minutes), Rat” value [7] of the same compound?
Answer: The value was 61%.

Question: And the pEC50 [8]?
Answer: The pEC50 was 6.22.
